Reference: patent publication US20230263825A1, “ANTI-CANCER ACTIVITY OF PERBORATE SALTS” (priority 2020, published 2023)
Entries after “also recorded” stand apart in the source; their conditions may differ.

Assay: Toxicology in rats, oral, histopathology
Format: in vivo
Source text: After 32 days, the rats were sacrificed and their organs were examined under a microscope.

## O.O.O.O.[Na+].[O-]B1OO1 [sodium perborate tetrahydrate]
rat, in vivo, po, 4 mg/kg
  KIDNEY Edema, No Exam: 0/10
  KIDNEY Notable or abnormal, %: 0%
  KIDNEY Notable or abnormal, No Exam: 0/10
  KIDNEY Within normal limits, %: 100%
  KIDNEY Within normal limits, No Exam: 10/10
  LIVER Fattening, %: 0%
  LIVER Fattening, No Exam: 0/10
  LIVER Infiltration, %: 0%
  LIVER Infiltration, No Exam: 0/10
  LIVER Notable or abnormal, %: 0%
  LIVER Notable or abnormal, No Exam: 0/10
  LIVER Within normal limits, %: 100%
  LIVER Within normal limits, No Exam: 10/10
  LUNG Lymphocytic infiltration, %: 0%
  LUNG Lymphocytic infiltration, No Exam: 0/10
  LUNG Notable or abnormal, %: 0%
  LUNG Notable or abnormal, No Exam: 0/10
  LUNG Pulmonary edema, %: 0%
  LUNG Pulmonary edema, No Exam: 0/10
  LUNG Within normal limits, %: 100%
  LUNG Within normal limits, No Exam: 10/10
  PANCREAS Notable or abnormal, %: 0%
  PANCREAS Notable or abnormal, No Exam: 0/10
  PANCREAS Within normal limits, %: 100%
  PANCREAS Within normal limits, No Exam: 10/10
  SPLEEN Notable or abnormal, %: 0%
  SPLEEN Notable or abnormal, No Exam: 0/10
  SPLEEN Within normal limits, %: 100%
  SPLEEN Within normal limits, No Exam: 10/10
  STOMACH Notable or abnormal, %: 0%
  STOMACH Notable or abnormal, No Exam: 0/10
  STOMACH Within normal limits, %: 100%
  STOMACH Within normal limits, No Exam: 10/10
rat, in vivo, po, 8 mg/kg/day
  HEART Notable or abnormal, %: 0%
  HEART Notable or abnormal, No Exam: 0/10
  HEART Within normal limits, %: 100%
  HEART Within normal limits, No Exam: 10/10
  INTESTINE, Large Notable or abnormal, %: 0%
  INTESTINE, Large Notable or abnormal, No Exam: 0/10
  INTESTINE, Large Within normal limits, %: 100%
  INTESTINE, Large Within normal limits, No Exam: 10/10
  INTESTINE, Small Enteritis, %: 10%
  INTESTINE, Small Enteritis, No Exam: 1/10
  INTESTINE, Small Notable or abnormal, %: 10%
  INTESTINE, Small Notable or abnormal, No Exam: 1/10
  INTESTINE, Small Within normal limits, %: 90%
  INTESTINE, Small Within normal limits, No Exam: 9/10
  KIDNEY Edema, %: 0%
  KIDNEY Edema, No Exam: 0/10
  KIDNEY Notable or abnormal, %: 0%
  KIDNEY Notable or abnormal, No Exam: 0/10
  KIDNEY Within normal limits, %: 100%
  KIDNEY Within normal limits, No Exam: 10/10
  LIVER Fattening, %: 0%
  LIVER Fattening, No Exam: 0/10
  LIVER Infiltration, %: 0%
  LIVER Infiltration, No Exam: 0/10
  LIVER Notable or abnormal, %: 0%
  LIVER Notable or abnormal, No Exam: 0/10
  LIVER Within normal limits, %: 100%
  LIVER Within normal limits, No Exam: 10/10
  LUNG Lymphocytic infiltration, %: 0%
  LUNG Lymphocytic infiltration, No Exam: 0/10
  LUNG Notable or abnormal, %: 0%
  LUNG Notable or abnormal, No Exam: 0/10
  LUNG Pulmonary edema, %: 0%
  LUNG Pulmonary edema, No Exam: 0/10
  LUNG Within normal limits, %: 100%
  LUNG Within normal limits, No Exam: 10/10
  PANCREAS Notable or abnormal, %: 0%
  PANCREAS Notable or abnormal, No Exam: 0/10
  PANCREAS Within normal limits, %: 100%
  PANCREAS Within normal limits, No Exam: 10/10
  SPLEEN Notable or abnormal, %: 0%
  SPLEEN Notable or abnormal, No Exam: 0/10
  SPLEEN Within normal limits, %: 100%
  SPLEEN Within normal limits, No Exam: 10/10
  STOMACH Notable or abnormal, %: 0%
  STOMACH Notable or abnormal, No Exam: 0/10
  STOMACH Within normal limits, %: 100%
  STOMACH Within normal limits, No Exam: 10/10
rats, oral 0.125 mg/kg/day to 8 mg/kg/day, 32 days
  histopathology overall: toxicity to healthy tissues / organ damage: no significant organ damage; also recorded: no significant toxicity to healthy tissues
